Measured values as given in patent publication US20060235076A1, “Medicinal composition for treating infection with drug-resistant staphylococcus aureus” (priority 2003, published 2006).
In brackets after ≈: the same amount, converted by molar mass. Like-named read-outs stand apart in the source and are kept apart here.

Key:
Type in all cases: cell-based, Staphylococcus aureus
[1] = test system: MRSA and MSSA; test: Enhancing activity for the antibacterial activity of oxacillin by various gallates (agar plate dilution method, oxacillin MIC); conditions: for MIC: Staphylococcus aureus, oxacillin alone
Protocol: According to the agar plate dilution method defined by Japan Society of Chemotherapy, MIC (Minimum inhibitory concentration) was determined. CAMHA was prepared by adding 50 mg/l of Ca-ion, 25 mg/l of Mg-ion, and 2% of NaCl to Mueller-Hinton II Agar (MHA), and it was used as a medium for use in the measurement of sensitivity. The bacterial liquid was incubated at 37° C. overnight and diluted to 10^6 CFU/ml with saline.

[2] = test system: MRSA; test: Potentiating effect of galloyl quinic acid derivatives for the antibacterial activity of oxacillin (agar plate dilution method, MIC); conditions: Staphylococcus aureus, read-out: Oxacillin MIC
Summary of the method: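 MIC by agar plate dilution (Japan Society of Chemotherapy) on Mueller-Hinton II agar with 50 mg/l Ca, 25 mg/l Mg and 2% NaCl, inoculum diluted to 10^6 CFU/ml; tara-derived galloyl quinic acids tested combined with oxacillin.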

[3] = test system: MRSA and MSSA; test: Antibacterial activity of gallic acid, various gallates and multivalent phenol derivatives alone (agar plate dilution method, MIC); conditions: for MIC: read-out: MIC alone
Summary of the method: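 Agar plate dilution MIC per Japan Society of Chemotherapy, on Mueller-Hinton II agar supplemented with 50 mg/l Ca-ion, 25 mg/l Mg-ion and 2% NaCl. Inoculum grown overnight at 37 °C and diluted in saline to 10^6 CFU/ml. Compounds tested alone.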

[4] = test system: MRSA COL and MRSA Strain No. 5; test: Potentiating effect of various gallates for antibacterial activity of oxacillin (MIC by broth microdilution method and FIC); conditions: combination with oxacillin
Summary of the method: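 Broth microdilution MIC per Japan Society of Chemotherapy method in cation-adjusted Mueller-Hinton broth (50 mg/l Ca, 25 mg/l Mg, 2% NaCl); inoculum 5×10^5 CFU/well from overnight 37° C culture. Gallate–oxacillin combinations evaluated by FIC.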

In the case of `Cc1onc(-c2ccccc2)c1C(=O)N[C@@H]1C(=O)N2[C@@H]1SC(C)(C)[C@@H]2C(=O)O` [Oxacillin, oxacillin], the MIC ([1]; ATCC 6538 / MRSA / MSSA, ATCC 6538) is reported as 0.063 µg/mL, the MIC ([1]; MRSA 1) is reported as over 256 µg/mL and the MIC ([1]; MRSA 2) is reported as 256 µg/mL. It also gave an MIC ([1]; MRSA 3) of 128 µg/mL, an MIC ([1]; MRSA 4) of 256 µg/mL and an MIC ([1]; MRSA 5) of 256 µg/mL. It also gave an MIC ([1]; MRSA 6) of over 256 µg/mL, an MIC ([1]; MRSA 7) of over 256 µg/mL and an MIC ([1]; MRSA 8) of 128 µg/mL. The MIC ([1]; MRSA 9) was 256 µg/mL, the MIC ([1]; MRSA 10) was 128 µg/mL and the MIC ([1]; MRSA 12) was over 256 µg/mL. It also gave an MIC ([1]; MRSA 16) of 256 µg/mL, an MIC ([1]; MRSA 17) of 256 µg/mL and an MIC ([1]; MRSA 18) of over 256 µg/mL. It also gave an MIC ([1]; MRSA 20) of 64 µg/mL, an MIC ([1]; MRSA 21) of 64 µg/mL and an MIC ([1]; MRSA 22) of 32 µg/mL. The MIC ([1]; MRSA 24) was under 0.5 µg/mL, the MIC ([1]; MRSA COL) was 256 µg/mL and the MIC ([1]; MSSA 1003) was 0.25 µg/mL. It also gave an MIC ([1]; MSSA 1010) of 0.25 µg/mL, an MIC ([1]; MSSA 1020) of 1 µg/mL and an MIC ([1]; MSSA 1023) of 2 µg/mL. The MIC ([1]; MSSA 1029) was 4 µg/mL, the MIC ([1]; MSSA 1032) was 0.13 µg/mL and the MIC ([2]; ATCC 6538 / MRSA, ATCC 6538, oxacillin alone (—)) was 0.063 µg/mL. The MIC ([2]; MRSA / MSSA, MSSA 1003, oxacillin alone (—)) was 0.25 µg/mL, the MIC ([2]; MRSA / MSSA, MSSA 1010, oxacillin alone (—)) was 0.25 µg/mL and the MIC ([2]; MRSA / MSSA, MSSA 1032, oxacillin alone (—)) was 0.13 µg/mL. The MIC ([2]; MRSA, MRSA 1, oxacillin alone (—)) was over 256 µg/mL, the MIC ([2]; MRSA, MRSA 2, oxacillin alone (—)) was 256 µg/mL and the MIC ([2]; MRSA, MRSA 3, oxacillin alone (—)) was 128 µg/mL. The MIC ([2]; MRSA, MRSA 4, oxacillin alone (—)) was 256 µg/mL, the MIC ([2]; MRSA, MRSA 5, oxacillin alone (—)) was 256 µg/mL and the MIC ([2]; MRSA, MRSA 6, oxacillin alone (—)) was over 256 µg/mL. It also gave an MIC ([2]; MRSA, MRSA 7, oxacillin alone (—)) of over 256 µg/mL, an MIC ([2]; MRSA, MRSA 8, oxacillin alone (—)) of 128 µg/mL and an MIC ([2]; MRSA, MRSA 9, oxacillin alone (—)) of 256 µg/mL. The MIC ([2]; MRSA, MRSA 10, oxacillin alone (—)) was 128 µg/mL, the MIC ([2]; MRSA, MRSA 12, oxacillin alone (—)) was over 256 µg/mL and the MIC ([2]; MRSA, MRSA 16, oxacillin alone (—)) was 256 µg/mL. For the same compound, the MIC ([2]; MRSA, MRSA 17, oxacillin alone (—)) was 256 µg/mL, the MIC ([2]; MRSA, MRSA 18, oxacillin alone (—)) was over 256 µg/mL and the MIC ([2]; MRSA, MRSA 20, oxacillin alone (—)) was 64 µg/mL. For the same compound, the MIC ([2]; MRSA, MRSA 21, oxacillin alone (—)) was 64 µg/mL, the MIC ([2]; MRSA, MRSA 22, oxacillin alone (—)) was 32 µg/mL and the MIC ([2]; MRSA, MRSA COL, oxacillin alone (—)) was 256 µg/mL. For the same compound, the MIC ([2]; MRSA) was 0.13 µg/mL.

`CCCCCOC(=O)c1cc(O)c(O)c(O)c1` [Pentyl gallate, n-pentyl gallate] was tested, and the “effect of combination use with oxacillin (words)” value ([1]; MRSA and MSSA) was “excellent potentiating effect”, the MIC alone ([3]; MRSA #2) was 62.5 µg/mL (≈ 260 µM) and the MIC50 ([3]; Staphylococcus aureus) was 62.5 µg/mL (≈ 260 µM). It also gave an MIC ([3]; Staphylococcus aureus, ATCC 6538 / MRSA / MSSA) of 62.5 µg/mL (≈ 260 µM), an MIC ([3]; Staphylococcus aureus, COL) of 62.5 µg/mL (≈ 260 µM) and an MIC ([3]; Staphylococcus aureus, MRSA #1) of 62.5 µg/mL (≈ 260 µM). It also gave an MIC ([3]; Staphylococcus aureus, MRSA #2) of 67.5 µg/mL (≈ 281 µM), an MIC ([3]; Staphylococcus aureus, MRSA #3) of 62.5 µg/mL (≈ 260 µM) and an MIC ([3]; Staphylococcus aureus, MRSA #4) of 62.5 µg/mL (≈ 260 µM). It also gave an MIC ([3]; Staphylococcus aureus, MRSA #5) of 62.5 µg/mL (≈ 260 µM), an MIC ([3]; Staphylococcus aureus, MRSA #6) of 62.5 µg/mL (≈ 260 µM) and an MIC ([3]; Staphylococcus aureus, MRSA #7) of 62.5 µg/mL (≈ 260 µM). The MIC ([3]; Staphylococcus aureus, MRSA #8) was 62.5 µg/mL (≈ 260 µM), the MIC ([3]; Staphylococcus aureus, MRSA #9) was 62.5 µg/mL (≈ 260 µM) and the MIC ([3]; Staphylococcus aureus, MRSA #10) was 62.5 µg/mL (≈ 260 µM). The MIC ([3]; Staphylococcus aureus, MRSA #12) was 62.5 µg/mL (≈ 260 µM), the MIC ([3]; Staphylococcus aureus, MRSA #16) was 62.5 µg/mL (≈ 260 µM) and the MIC ([3]; Staphylococcus aureus, MRSA #17) was 62.5 µg/mL (≈ 260 µM). The MIC ([3]; Staphylococcus aureus, MRSA #18) was 62.5 µg/mL (≈ 260 µM), the MIC ([3]; Staphylococcus aureus, MRSA #20) was 62.5 µg/mL (≈ 260 µM) and the MIC ([3]; Staphylococcus aureus, MRSA #21) was 62.5 µg/mL (≈ 260 µM). For the same compound, the MIC ([3]; Staphylococcus aureus, MRSA #22) was 62.5 µg/mL (≈ 260 µM), the MIC ([3]; Staphylococcus aureus, MRSA #24) was 62.5 µg/mL (≈ 260 µM) and the MIC ([3]; Staphylococcus aureus, MSSA #1003) was 62.5 µg/mL (≈ 260 µM). It also gave an MIC ([3]; Staphylococcus aureus, MSSA #1010) of 62.5 µg/mL (≈ 260 µM), an MIC ([3]; Staphylococcus aureus, MSSA #1020) of 62.5 µg/mL (≈ 260 µM) and an MIC ([3]; Staphylococcus aureus, MSSA #1023) of 62.5 µg/mL (≈ 260 µM). The MIC ([3]; Staphylococcus aureus, MSSA #1029) was 62.5 µg/mL (≈ 260 µM), the MIC ([3]; Staphylococcus aureus, MSSA #1032) was 62.5 µg/mL (≈ 260 µM) and the FIC value ([4]; MRSA COL) was 0.375. The FIC value ([4]; MRSA Strain No. 5) was 0.563.
